In the supplement of paper PMC10627819:

What was measured:
S. aureus DSM 20231 [1] = assay: fitness (endpoint OD595 vs no drug) (fraction); higher = more growth
How it was run: (§1)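 Each well of a 384-well plate received 30 µl of culture at OD595 0.01, or 55 µl for S. pneumoniae. TSB, LB Lennox or CY served as media at 37 °C. OD595 was taken every 30 min for 14 h and corrected by subtracting the first reading. Fitness is the optical density at stationary-phase entry divided by the robust mean of no-drug controls, capped at 1.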

S. aureus Newman [2] = assay: as above
How it was run: as §1

B. subtilis 168 = assay: Bliss interaction score (quartile over a dose matrix) (fitness difference); higher = more antagonism (negative = synergy)
How it was run: (§2)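 The Bliss score takes observed fitness and subtracts the expected fitness, calculated as a product of single-drug fitness values. Those single-drug values were inferred from the combination data. Fitness is OD595 at entry into stationary phase divided by the plate's robust no-drug mean, capped at 1, and the score is summarised by quartiles across technical, biological and donor/recipient replicates.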

S. aureus DSM 20231 [3] = assay: as above
How it was run: as §2

S. aureus Newman [4] = assay: as above
How it was run: as §2

S. pneumoniae D39V = assay: as above
How it was run: as §2

[5] = first compound 0.75 µg/mL, partner 0.39 µg/mL
[6] = first compound 0.75 µg/mL, partner 0.78 µg/mL
[7] = first compound 0.75 µg/mL, partner 1.56 µg/mL
[8] = first compound 1.5 µg/mL, partner 0.78 µg/mL
[9] = first compound 1.5 µg/mL, partner 1.56 µg/mL
[10] = first compound 3 µg/mL, partner 0.39 µg/mL
[11] = first compound 3 µg/mL, partner 0.78 µg/mL
[12] = first compound 0.75 µg/mL, partner 0.781 µg/mL
[13] = first compound 0.75 µg/mL, partner 1.562 µg/mL
[14] = first compound 0.75 µg/mL, partner 3.124 µg/mL
[15] = first compound 1.5 µg/mL, partner 0.781 µg/mL
[16] = first compound 1.5 µg/mL, partner 1.562 µg/mL
[17] = first compound 1.5 µg/mL, partner 3.124 µg/mL
[18] = first compound 3 µg/mL, partner 0.781 µg/mL
[19] = first compound 3 µg/mL, partner 1.562 µg/mL
[20] = first compound 3 µg/mL, partner 3.124 µg/mL
[21] = first compound 0.75 µg/mL, partner 1.25 µg/mL
[22] = first compound 0.75 µg/mL, partner 2.5 µg/mL
[23] = first compound 0.75 µg/mL, partner 5 µg/mL
[24] = first compound 1.5 µg/mL, partner 1.25 µg/mL
[25] = first compound 1.5 µg/mL, partner 2.5 µg/mL
[26] = first compound 1.5 µg/mL, partner 5 µg/mL
[27] = first compound 3 µg/mL, partner 1.25 µg/mL
[28] = first compound 3 µg/mL, partner 2.5 µg/mL
[29] = first compound 0.75 µg/mL, partner 1 µg/mL
[30] = first compound 0.75 µg/mL, partner 2 µg/mL
[31] = first compound 0.75 µg/mL, partner 4 µg/mL
[32] = first compound 1.5 µg/mL, partner 1 µg/mL
[33] = first compound 1.5 µg/mL, partner 2 µg/mL
[34] = first compound 1.5 µg/mL, partner 4 µg/mL
[35] = first compound 3 µg/mL, partner 1 µg/mL
[36] = first compound 3 µg/mL, partner 2 µg/mL
[37] = first compound 0.75 µg/mL, partner 0.0156 µg/mL
[38] = first compound 0.75 µg/mL, partner 0.0312 µg/mL
[39] = first compound 0.75 µg/mL, partner 0.0625 µg/mL
[40] = first compound 1.5 µg/mL, partner 0.0156 µg/mL
[41] = first compound 1.5 µg/mL, partner 0.0312 µg/mL
[42] = first compound 1.5 µg/mL, partner 0.0625 µg/mL
[43] = first compound 3 µg/mL, partner 0.0312 µg/mL
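For Bliss interaction score (quartile over a dose matrix) in this document: first quartile when negative (synergy) and third quartile when positive (antagonism).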

O=C(N[C@H](CO)[C@H](O)c1ccc([N+](=O)[O-])cc1)C(Cl)Cl [Chloramphenicol] + COc1ccc(C[C@H](N)C(=O)N[C@H]2[C@@H](O)[C@H](n3cnc4c(N(C)C)ncnc43)O[C@@H]2CO)cc1 [Puromycin]
fitness (S. aureus DSM 20231 [1]; [5]): 0.764 | fitness (S. aureus DSM 20231 [1]; [6]): 0.759 | fitness (S. aureus DSM 20231 [1]; [7]): 0.782 | fitness (S. aureus DSM 20231 [1]; first compound 0.75 µg/mL, partner 3.12 µg/mL, one replicate): 0.771 | fitness (S. aureus DSM 20231 [1]; first compound 0.75 µg/mL, partner 6.24 µg/mL, one replicate): 0.387 | fitness (S. aureus DSM 20231 [1]; [8]): 0.585 | fitness (S. aureus DSM 20231 [1]; [9]): 0.455 | fitness (S. aureus DSM 20231 [1]; first compound 1.5 µg/mL, partner 3.12 µg/mL, one replicate): 0.231 | fitness (S. aureus DSM 20231 [1]; [10]): 0.11 | fitness (S. aureus DSM 20231 [1]; [11]): 0.0684 | fitness (S. aureus DSM 20231 [1]; first compound 3 µg/mL, partner 3.12 µg/mL, one replicate): 0.0598 | fitness (S. aureus DSM 20231 [1]; first compound 3 µg/mL, partner 6.24 µg/mL, one replicate): 0.0594 | fitness (S. aureus Newman [2]; [5]): 0.764 | fitness (S. aureus Newman [2]; [6]): 0.777 | fitness (S. aureus Newman [2]; [7]): 0.807 | fitness (S. aureus Newman [2]; first compound 1.5 µg/mL, partner 0.39 µg/mL): 0.502 | fitness (S. aureus Newman [2]; [8]): 0.501 | fitness (S. aureus Newman [2]; [9]): 0.501 | fitness (S. aureus Newman [2]; [10]): 0.145 | fitness (S. aureus Newman [2]; [11]): 0.121 | Bliss interaction score (B. subtilis 168): -0.0629 | Bliss interaction score (S. aureus DSM 20231 [3]): 0.0724 | Bliss interaction score (S. aureus Newman [4]): -0.111 | Bliss interaction score (S. pneumoniae D39V): -0.0967

O=C(N[C@H](CO)[C@H](O)c1ccc([N+](=O)[O-])cc1)C(Cl)Cl [Chloramphenicol] + C[C@@H]1O[C@@H]1P(=O)(O)O [Fosfomycin]
fitness (S. aureus DSM 20231 [1]; [12]): 0.633 | fitness (S. aureus DSM 20231 [1]; [13]): 0.558 | fitness (S. aureus DSM 20231 [1]; [14]): 0.436 | fitness (S. aureus DSM 20231 [1]; [15]): 0.473 | fitness (S. aureus DSM 20231 [1]; [16]): 0.402 | fitness (S. aureus DSM 20231 [1]; [17]): 0.265 | fitness (S. aureus DSM 20231 [1]; [18]): 0.116 | fitness (S. aureus DSM 20231 [1]; [19]): 0.0874 | fitness (S. aureus DSM 20231 [1]; [20]): 0.0652 | fitness (S. aureus Newman [2]; [12]): 0.491 | fitness (S. aureus Newman [2]; [13]): 0.452 | fitness (S. aureus Newman [2]; [14]): 0.117 | fitness (S. aureus Newman [2]; [15]): 0.394 | fitness (S. aureus Newman [2]; [16]): 0.272 | fitness (S. aureus Newman [2]; [17]): 0.0322 | fitness (S. aureus Newman [2]; [18]): 0.117 | fitness (S. aureus Newman [2]; [19]): 0.0456 | fitness (S. aureus Newman [2]; [20]): 0.0343 | Bliss interaction score (B. subtilis 168): 0.129 | Bliss interaction score (S. aureus DSM 20231 [3]): 0.0517 | Bliss interaction score (S. aureus Newman [4]): -0.108 | Bliss interaction score (S. pneumoniae D39V): 0.0635

O=C(N[C@H](CO)[C@H](O)c1ccc([N+](=O)[O-])cc1)C(Cl)Cl [Chloramphenicol] + C[n+]1ccc(-c2cc[n+](C)cc2)cc1 [Paraquat]
fitness (S. aureus DSM 20231 [1]; [21]): 0.684 | fitness (S. aureus DSM 20231 [1]; [22]): 0.711 | fitness (S. aureus DSM 20231 [1]; [23]): 0.688 | fitness (S. aureus DSM 20231 [1]; [24]): 0.564 | fitness (S. aureus DSM 20231 [1]; [25]): 0.626 | fitness (S. aureus DSM 20231 [1]; [26]): 0.618 | fitness (S. aureus DSM 20231 [1]; [27]): 0.121 | fitness (S. aureus DSM 20231 [1]; [28]): 0.159 | fitness (S. aureus DSM 20231 [1]; first compound 3 µg/mL, partner 5 µg/mL): 0.158 | fitness (S. aureus Newman [2]; [21]): 0.724 | fitness (S. aureus Newman [2]; [22]): 0.715 | fitness (S. aureus Newman [2]; [23]): 0.739 | fitness (S. aureus Newman [2]; [24]): 0.423 | fitness (S. aureus Newman [2]; [25]): 0.429 | fitness (S. aureus Newman [2]; [26]): 0.476 | fitness (S. aureus Newman [2]; [27]): 0.164 | fitness (S. aureus Newman [2]; [28]): 0.15 | Bliss interaction score (B. subtilis 168): 0.0402 | Bliss interaction score (S. aureus DSM 20231 [3]): 0.0604 | Bliss interaction score (S. aureus Newman [4]): -0.058 | Bliss interaction score (S. pneumoniae D39V): 0.0595

O=C(N[C@H](CO)[C@H](O)c1ccc([N+](=O)[O-])cc1)C(Cl)Cl [Chloramphenicol] + Cc1cc(NS(=O)(=O)c2ccc(N)cc2)no1 [Sulfamethoxazol]
fitness (S. aureus DSM 20231 [1]; [29]): 0.614 | fitness (S. aureus DSM 20231 [1]; [30]): 0.652 | fitness (S. aureus DSM 20231 [1]; [31]): 0.709 | fitness (S. aureus DSM 20231 [1]; [32]): 0.541 | fitness (S. aureus DSM 20231 [1]; [33]): 0.526 | fitness (S. aureus DSM 20231 [1]; [34]): 0.49 | fitness (S. aureus DSM 20231 [1]; [35]): 0.115 | fitness (S. aureus DSM 20231 [1]; [36]): 0.102 | fitness (S. aureus Newman [2]; [29]): 0.837 | fitness (S. aureus Newman [2]; [30]): 0.899 | fitness (S. aureus Newman [2]; [31]): 0.909 | fitness (S. aureus Newman [2]; first compound 0.75 µg/mL, partner 8 µg/mL, one replicate): 0.889 | fitness (S. aureus Newman [2]; [32]): 0.583 | fitness (S. aureus Newman [2]; [33]): 0.652 | fitness (S. aureus Newman [2]; [34]): 0.647 | fitness (S. aureus Newman [2]; first compound 1.5 µg/mL, partner 8 µg/mL, one replicate): 0.694 | fitness (S. aureus Newman [2]; [35]): 0.199 | fitness (S. aureus Newman [2]; [36]): 0.172 | fitness (S. aureus Newman [2]; first compound 3 µg/mL, partner 4 µg/mL): 0.179 | fitness (S. aureus Newman [2]; first compound 3 µg/mL, partner 8 µg/mL, one replicate): 0.35 | Bliss interaction score (B. subtilis 168): 0.0483 | Bliss interaction score (S. aureus DSM 20231 [3]): -0.0341 | Bliss interaction score (S. aureus Newman [4]): 0.0702 | Bliss interaction score (S. pneumoniae D39V): -0.0682

O=C(N[C@H](CO)[C@H](O)c1ccc([N+](=O)[O-])cc1)C(Cl)Cl [Chloramphenicol] + Cc1onc(-c2ccccc2)c1C(=O)N[C@@H]1C(=O)N2[C@@H]1SC(C)(C)[C@@H]2C(=O)O [Oxacillin]
fitness (S. aureus DSM 20231 [1]; [37]): 0.677 | fitness (S. aureus DSM 20231 [1]; [38]): 0.6 | fitness (S. aureus DSM 20231 [1]; [39]): 0.489 | fitness (S. aureus DSM 20231 [1]; [40]): 0.461 | fitness (S. aureus DSM 20231 [1]; [41]): 0.392 | fitness (S. aureus DSM 20231 [1]; [42]): 0.478 | fitness (S. aureus DSM 20231 [1]; [43]): 0.113 | fitness (S. aureus DSM 20231 [1]; first compound 3 µg/mL, partner 0.0625 µg/mL): 0.0972 | fitness (S. aureus Newman [2]; [37]): 0.734 | fitness (S. aureus Newman [2]; [38]): 0.617 | fitness (S. aureus Newman [2]; [39]): 0.555 | fitness (S. aureus Newman [2]; [40]): 0.573 | fitness (S. aureus Newman [2]; [41]): 0.484 | fitness (S. aureus Newman [2]; [42]): 0.359 | fitness (S. aureus Newman [2]; first compound 3 µg/mL, partner 0.0156 µg/mL): 0.253 | fitness (S. aureus Newman [2]; [43]): 0.143 | Bliss interaction score (B. subtilis 168): -0.0473 | Bliss interaction score (S. aureus DSM 20231 [3]): 0.0696 | Bliss interaction score (S. aureus Newman [4]): 0.0445 | Bliss interaction score (S. pneumoniae D39V): 0.0937
